PMC8305768, “Design, Synthesis and Antiparasitic Evaluation of Click Phospholipids” (Molecules, 2021)
Where a name gives a salt, the structure may show the parent alone.

What was measured:
[1] = Early ADMET profiling panel, overall; settings: 10 μM; except for toxicity against THP1 macrophages
Description: Early ADMET profiling: The early ADMET profiling of the new derivatives involved a group of assays widely used in drug development as part of the preclinical in vitro toxicity studies. In particular our panel included hERG inhibition, five cytochromes P450 (CYP1A2, CYP2C9, CYP2C19, CYP2D6 and CYP3A4), two cell-lines (A549, epithelial human lung adenocarcinoma, WI38 and foetal lung fibroblasts), Aurora B kinase and mitochondrial toxicity, in addition to the parasite relevant toxicity against THP1 macrophages. The compounds were tested at 10 μΜ, whilst the miltefosine control was tested at 10 μΜ or 1 μM. The toxicity of the new click phospholipids is depicted in Figure 3 in a traffic light format (from red through yellow to green for decreasing ADMET liabilities).
Cytotoxicity assay: A549 cells and WI-38 cells were grown on surface-modified T175 cell culture flasks in Dulbecco’s modified Eagle medium with 10% foetal calf serum (FCS), streptomycin (100 μg/mL) and 100 U/mL penicillin G. At about 80% confluency, cells were washed, trypsinized, resuspended and counted in RPMI-1640 medium before seeding (in triplicate) into white 384-well microtiter plates (20 μL) at 500 cells/well and incubated at 37 °C in the presence of 5% CO2 for 24 h. A total of 20 μL/well of CellTiter-Glo (CTG) reagent (Promega Corp., Madison, WI, USA) was added to each well, and plates were read using an EnVision Multilabel 2103 Reader after a 10-min incubation in the dark. Dose–response assays for compounds made use of 11-point curves. Each test compound (200 nL of 10 mM top concentration in 100% v/v DMSO) was added to cells seeded in polystyrene 384-well cell culture microtiter plates using the Echo 550 Liquid Handler and read after 24 h of incubation at 37 °C in the presence of 5% CO2 using CTG as described above. The compounds/positive control (paclitaxel with final concentration of 10 μM and 1% v/v DMSO) and no compound (final 1% v/v DMSO) were added into the 384-well plates (200 nL/well; 1% v/v DMSO) using the Echo 550 Liquid Handler. The raw luminescence signal of each sample was converted into the percentage of cell growth.
Cytochrome (CYP) P450 inhibition assay: These assays made use of microsomal preparations of CYP450 (1A2, 2C9, 2C19, 2D6 and 3A4) from baculovirus-infected insect cells (Corning Inc., Corning, NY, USA) and cytochrome c reductase (and cytochrome b5 for CYP450 3A4). For detection of CYP450 activity, the luminescence-based P450-Glo (Promega Corp., Madison, WI, USA) assay system was used that contained a luminogenic CYP450 substrate, lyophilized luciferin detection reagent and reconstitution buffer. The substrates were luciferin derivatives of CYP450-specific substrates that produce (4S)-4,5-dihydro-2-(6-hydroxybenzothiazolyl)-4-thiazolecarboxylic acid (D-luciferin) after cleavage by CYP450 (CYP450 3A4, luciferin-IPA; CYP450 2C19, luciferin-H EGE; CYP450 2C9, luciferin-H; CYP450 2D6, luciferin-ME EGE; CYP450 1A2, luciferin-1A2). CYP450 reactions were initiated by addition of the NADPH regeneration system to the enzyme–substrate mixture with the luciferin detection reagent stopping the reaction and the D-luciferin being converted to oxyluciferin under the production of light being proportional to the CYP450 activity. The CYP450 assays were performed using the Tecan Fluent liquid-handling automation platform (Tecan Group Ltd., Mannedorf, Switzerland) in the 384-well assay format. Compounds were added into an empty 384-well plate (100 nL/well in 1% v/v DMSO) using the Echo 550 Liquid Handler followed by the addition of 5 μL/well of the CYP450/substrate mixture and incubation for 30 min at 37 °C, after which the reaction was initiated by the addition of the 5 μL/well NADPH regeneration system. […]

CYP3A4 = molecular target: T1, CYP3A4 (Homo sapiens, UniProt P08684); assay: Cytochrome P450 inhibition assay (P450-Glo) CYP3A4; type: in vitro ADME; settings: compounds 10 μM; miltefosine 10 μM or 1 μM
T1 construct: purchased Corning Inc; host or cells: baculovirus-infected insect cells
T1 sequence (P08684 2-503 limits assumed): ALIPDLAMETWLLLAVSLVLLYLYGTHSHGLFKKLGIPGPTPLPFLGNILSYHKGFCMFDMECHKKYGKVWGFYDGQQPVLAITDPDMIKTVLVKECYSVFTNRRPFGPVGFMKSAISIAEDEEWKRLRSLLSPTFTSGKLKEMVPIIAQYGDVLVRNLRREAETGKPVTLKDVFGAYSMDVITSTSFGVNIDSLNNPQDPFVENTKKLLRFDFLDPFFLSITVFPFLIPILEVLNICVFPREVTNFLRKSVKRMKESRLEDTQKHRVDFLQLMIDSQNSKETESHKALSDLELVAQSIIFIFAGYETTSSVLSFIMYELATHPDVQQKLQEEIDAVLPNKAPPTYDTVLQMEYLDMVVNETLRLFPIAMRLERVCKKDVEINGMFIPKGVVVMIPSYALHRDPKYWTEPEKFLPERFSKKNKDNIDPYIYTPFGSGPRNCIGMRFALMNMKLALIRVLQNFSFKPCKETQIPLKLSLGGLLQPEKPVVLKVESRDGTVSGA
Description: Cytochrome (CYP) P450 inhibition assay: These assays made use of microsomal preparations of CYP450 (1A2, 2C9, 2C19, 2D6 and 3A4) from baculovirus-infected insect cells (Corning Inc., Corning, NY, USA) and cytochrome c reductase (and cytochrome b5 for CYP450 3A4). For detection of CYP450 activity, the luminescence-based P450-Glo (Promega Corp., Madison, WI, USA) assay system was used that contained a luminogenic CYP450 substrate, lyophilized luciferin detection reagent and reconstitution buffer. The substrates were luciferin derivatives of CYP450-specific substrates that produce (4S)-4,5-dihydro-2-(6-hydroxybenzothiazolyl)-4-thiazolecarboxylic acid (D-luciferin) after cleavage by CYP450 (CYP450 3A4, luciferin-IPA; CYP450 2C19, luciferin-H EGE; CYP450 2C9, luciferin-H; CYP450 2D6, luciferin-ME EGE; CYP450 1A2, luciferin-1A2). CYP450 reactions were initiated by addition of the NADPH regeneration system to the enzyme–substrate mixture with the luciferin detection reagent stopping the reaction and the D-luciferin being converted to oxyluciferin under the production of light being proportional to the CYP450 activity. The CYP450 assays were performed using the Tecan Fluent liquid-handling automation platform (Tecan Group Ltd., Mannedorf, Switzerland) in the 384-well assay format. Compounds were added into an empty 384-well plate (100 nL/well in 1% v/v DMSO) using the Echo 550 Liquid Handler followed by the addition of 5 μL/well of the CYP450/substrate mixture and incubation for 30 min at 37 °C, after which the reaction was initiated by the addition of the 5 μL/well NADPH regeneration system. After a further 30-min incubation at 37 °C, the CYP450 reaction was stopped and the luciferase reaction was simultaneously initiated by addition of 10 μL/well of luciferin detection reagent, followed by an additional 30-min incubation at 37 °C. The luminescence signal was detected using an Infinite M1000 PRO plate reader (Tecan Group Ltd., Mannedorf, Switzerland). The NCs yielded 0% inhibition (1% v/v DMSO) and standard CYP450 specific inhibitors were used as positive controls, yielding 100% inhibition (CYP450 1A2, alpha-naphthoflavone; CYP450 2C9, sulfaphenazole; CYP450 2C19, troglitazone; CYP450 2D6, quinidine; CYP450 3A4, ketoconazole).
Data analysis: The screening data were obtained in triplicate and analysed using ActivityBase (IDBS, Guildford, UK), and outlier elimination in the control wells was performed using the 3-sigma method. Unless stated, dose–response experiments were performed in the 11-point format with the IC50 value, Hill slope, minimum signal and maximum signal for each dose–response curve obtained using a four-parameter logistic fit in the XE module of ActivityBase (IDBS).

For `CCCCCc1cn(CCCCCCCCCCCOP(=O)([O-])OCC[N+](C)(C)C)nn1` [Compound 25, 11-(4-pentyl-1H-1,2,3-triazol-1-yl)undecyl (2-(trimethylammonio)ethyl) phosphate inner salt], the “ADMET liabilities (overall panel)” value [1] was “no liabilities” and the “% inhibition ± SD at 10 μΜ CYP3A4” value (CYP3A4) was “–20.13%”.
For `CCCCCCCCc1noc(CCCCCOP(=O)([O-])OCC[N+](C)(C)C)n1` [Compound 53, 5-(3-octyl-1,2,4-oxadiazol-5-yl)pentyl (2-(trimethylammonio)ethyl) phosphate inner salt], the “ADMET liabilities (overall panel)” value [1] was “no liabilities” and the “% inhibition ± SD at 10 μΜ CYP3A4” value (CYP3A4) was “–12.40%”.
In the case of `C[N+](C)(C)CCOP(=O)([O-])OCCCCCn1cc(CCCCCCCCN)nn1` [Compound 35, 5-(4-(8-aminooctyl)-1H-1,2,3-triazol-1-yl)pentyl (2-(trimethylammonio)ethyl) phosphate inner salt], the “ADMET liabilities (overall panel)” value [1] is reported as “no liabilities” and the “% inhibition ± SD at 10 μΜ CYP3A4” value (CYP3A4) is reported as “–8.64%”.
With `C[N+](C)(C)CCOP(=O)([O-])OCCCCCCCCCCCn1cc(CC2CCCCC2)nn1` [Compound 29, 11-(4-(cyclohexylmethyl)-1H-1,2,3-triazol-1-yl)undecyl (2-(trimethylammonio)ethyl) phosphate inner salt] the “ADMET liabilities (overall panel)” value [1] was “no liabilities” and the “% inhibition ± SD at 10 μΜ CYP3A4” value (CYP3A4) was “–33.59%”.
In the case of `CCCCCCCCc1noc(CCCCCCCCCCOP(=O)([O-])OCC[N+](C)(C)C)n1` [Compound 54, 10-(3-octyl-1,2,4-oxadiazol-5-yl)decyl (2-(trimethylammonio)ethyl) phosphate inner salt], the “% inhibition ± SD at 10 μΜ CYP3A4” value (CYP3A4) is reported as 13.88%.
With `C[N+](C)(C)CCOP(=O)([O-])OCCCCCCCCCCCn1cc(CCCCCCCCC(=O)O)nn1` [Compound 34, 11-(4-(8-carboxyoctyl)-1H-1,2,3-triazol-1-yl)undecyl (2-(trimethylammonio)ethyl) phosphate inner salt] the “ADMET liabilities (overall panel)” value [1] was “no liabilities” and the “% inhibition ± SD at 10 μΜ CYP3A4” value (CYP3A4) was 19.27%.
With `C[N+](C)(C)CCOP(=O)([O-])OCCCCCCCCCCCn1cc(CC2CCCC2)nn1` [Compound 28, 11-(4-(cyclopentylmethyl)-1H-1,2,3-triazol-1-yl)undecyl (2-(trimethylammo nio)ethyl) phosphate inner salt] the “ADMET liabilities (overall panel)” value [1] was “no liabilities” and the “% inhibition ± SD at 10 μΜ CYP3A4” value (CYP3A4) was “–33.70%”.
In the case of `C[N+](C)(C)CCCOP(=O)([O-])OCCCCCCCCCCCn1cc(CC2CCCCC2)nn1` [Compound 33, 11-(4-(cyclohexylmethyl)-1H-1,2,3-triazol-1-yl)undecyl (3-(trimethylammonio)propyl) phosphate inner salt], the “ADMET liabilities (overall panel)” value [1] is reported as “no liabilities” and the “% inhibition ± SD at 10 μΜ CYP3A4” value (CYP3A4) is reported as 7.61 ± 9.09%.
For `CCCCCCCc1nnc(CCCCCCCCCCOP(=O)([O-])OCC[N+](C)(C)C)o1` [Compound 65, 10-(5-heptyl-1,3,4-oxadiazol-2-yl)decyl (2-(trimethylammonio)ethyl) phosphate inner salt], the “ADMET liabilities (overall panel)” value [1] was “no liabilities” and the “% inhibition ± SD at 10 μΜ CYP3A4” value (CYP3A4) was “–2.44%”.
In the case of `C[N+](C)(C)CCOP(=O)([O-])OCCCCCn1cc(CCCCCCCCNC(=O)OCc2ccccc2)nn1` [Compound 31, 5-(4-(8-(((benzyloxy)carbonyl)amino)octyl)-1H-1,2,3-triazol-1-yl)pentyl (2-(trimethylammonio)ethyl) phosphate inner salt], the “ADMET liabilities (overall panel)” value [1] is reported as “no liabilities” and the “% inhibition ± SD at 10 μΜ CYP3A4” value (CYP3A4) is reported as “–7.33%”.
In the case of `CCCCCCCCCCCCCCCCOP(=O)([O-])OCC[N+](C)(C)C` [Miltefosine, hexadecylphosphocholine, reference compound], the “% inhibition ± SD at 10 μΜ CYP3A4” value (CYP3A4) is reported as 8.39%.
